Source: article PMC5869189 (Frontiers in Immunology, 2018)

System: PBMC from healthy, seropositive donors
Format: cell-based, human

| Sequence | % Responders [%] | Median SFC/10^6 PBMCs (IFN-g) |
| --- | --- | --- |
| AATAVMAASASAQSVPASRQ [BPSL2522_P2] | 88.6 | 273 |
| ECTPGTAHYAWARNGSNVRY [BPSS1599_P29] | 97.9 | 162 |
| TELAQAGDIACLALQAARTG [BPSS0530_P10] | 93.0 | 280 |
| NANLGGIAPPEFVRAIDVPG [BPSS1599_P40] | 89.6 | 137 |
| IQHVSVNNLNVGRSPEEILR [BPSL2096_P15] | 82.4 | 314 |
| DAARATGLPGADKQGVFTPS [BPSS1525_P16] | 82.1 | 197 |
| GALGGLLAFRSQTLDPAQAQ [BPSL0280_P29] | 93.1 | 463 |
| GKGAAIGAGVGALVGGVTGY [BPSL0999_P6] | 91.5 | 357 |
| RLNALPNPPRQIPYYAQSTY [BPSS0530_P40] | 81.4 | 219 |
| SLRRAQAVKSYLVSKGVPAN [BPSL2522_P16] | 82.9 | 317 |
| ALPDGRWAYFAVRDHAFMPN [BPSS1599_P11] | 95.8 | 148 |
| LLLRQAIAEYRMRLANLDAF [BPSS0530_P25] | 81.4 | 244 |
| DRGDQVHICIVDKQWNLKKL [BPSS0530_P34] | 86.0 | 299 |
| LRVERIAYQNNQWTLEGVLY [BPSS1599_P42] | 91.7 | 139 |
| FETVTEASFPGKWKIIYFYP [BPSL2096_P4] | 88.2 | 305 |
| LQTSFEPLAMMLRQALARVI [BPSS0530_P31] | 97.7 | 240 |
| MLRQALARVIETPVLPLRFE [BPSS0530_P32] | 95.3 | 316 |
| RDKEAGVALRATFIVDPDNT [BPSL2096_P13] | 94.1 | 315 |
| KLTMLAHDAMMSAAAQDRSI [BPSS1531_P19] | 88.6 | 226 |
| NQWTLEGVLYAK [BPSS1599_P43] | 81.3 | 120 |
| EKLRQLLPQQTKLGAVEQIQ [BPSS0530_P37] | 83.7 | 222 |

| Sequence | % Responders [%] | Median SFC/10^6 PBMCs (IFN-g) |
| --- | --- | --- |
| GALVGGVTGYNWQAIKNKLA [BPSL0999_P7] | 80.9 | 322 |
| GDWVGSREEALERLHTDYAW [BPSS1599_P13] | 95.8 | 182 |
| SALSATDQANATAMVAQINA [BPSL3319_P27] | 86.7 | 259 |
| FEVESTDPFWKQTLAGSAMA [BPSS0530_P42] | 83.7 | 237 |
| WARNGSNVRYLLVVEPGATL [BPSS1599_P30] | 91.7 | 155 |
| DLDQDGLGLGRLGLRHARGV [BPSS0530_P6] | 90.7 | 288 |
| RQTAMSNAQTLASQLVAAGQ [BPSL0280_P14] | 89.7 | 565 |
| EAVELAKKLKFDLMVLRIDR [BPSS1599_P4] | 85.4 | 137 |
| AHNQTLSQNRAQSVVNALAQ [BPSL0999_P16] | 85.1 | 350 |
| TKLGAVEQIQKLVDLQLPGA [BPSS0530_P38] | 90.7 | 305 |
| FSKIGETLGQLFRHRAPDSA [BPSS1525_P5] | 89.7 | 178 |
| SQKITYQADTLFDFDKAVLK [BPSL2522_P10] | 91.4 | 297 |
| AWAERFDRYLDDADALVASA [BPSL2504_P8] | 91.4 | 317 |
| IFAFSAAMPAEKLRQLLPQQ [BPSS0530_P36] | 95.3 | 298 |
| QIPYYAQSTYFEVESTDPFW [BPSS0530_P41] | 81.4 | 292 |
| WKSQLRSDEVALPIARVAGR [BPSS0530_P17] | 97.7 | 274 |
| QGMGASNPIADNATEAGRAQ [BPSL0999_P19] | 97.9 | 375 |
| EVPDLAVGLDAPGTPRRLTI [BPSS0530_P14] | 95.3 | 279 |
| LRIVGDFPDLRFEAWGLRDGKVA [BPSS0530_P44] | 90.7 | 225 |
| PEQGPRAPLANLAQQAAALP [BPSS1599_P37] | 93.8 | 147 |
| DTDGERATLDVPLTAPTAND [BPSS1599_P32] | 87.5 | 148 |

| Sequence | % Responders [%] | Median SFC/10^6 PBMCs (IFN-g) |
| --- | --- | --- |
| VDKQWNLKKLIFAFSAAMPA [BPSS0530_P35] | 90.7 | 243 |
| GGERMSDEHASVLAQEAPAR [BPSS1531_P30] | 91.4 | 213 |
| AGTVMNVGNQVSQAAGGIVV [BPSS1532_P54] | 80.6 | 189 |
| LASRYRAVSTEVPDLAVGLD [BPSS0530_P13] | 97.7 | 267 |
| TPEIRQDAEFGRQVYEATLC [BPSS1525_P11] | 84.6 | 184 |
| HAEQALELRGINKPVLSNDE [BPSS1531_P26] | 85.7 | 219 |
| AALPDALAFARACAMRFGRL [BPSS1599_P26] | 89.6 | 164 |
| GAAQMTAAIAGGALQATTSL [BPSS1531_P21] | 97.1 | 225 |
| RVEVEVVGTQEVQKTTVPAQ [BPSL2522_P23] | 97.1 | 361 |
| ELQSTLRVRLASTSAQRVLS [BPSS0530_P22] | 88.4 | 247 |
| AHLVLRSLIDELQSTLRVRL [BPSS0530_P21] | 93.0 | 258 |
| PVAPVAPAITSQKITYQADT [BPSL2522_P9] | 88.6 | 353 |
| GVAAAGYANTRDGFAPGHLS [BPSS1599_P6] | 85.4 | 129 |
| QPAPNWLGAFALPDGRWAYF [BPSS1599_P10] | 95.8 | 189 |
| FDLMVLRIDRGVAAAGYANT [BPSS1599_P5] | 89.6 | 129 |
| AIFSEAKDRFCMDPATRAGN [BPSS1525_P13] | 92.3 | 200 |
| ASTSAQRVLSTGGGVADLIE [BPSS0530_P23] | 90.7 | 267 |
| TEQPDGSLKLNVPSSVTFAT [BPSL0999_P10] | 93.6 | 382 |
| VGTQEVQKTTVPAQ [BPSL2522_P22] | 97.1 | 270 |
